Measurements published in PubChem BioAssay (NCI).
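Values below derive from 48-hour exposures of cells grown in 96-well plates, with endpoints linearly interpolated between the two concentrations bracketing the appropriate inhibition level. TGI is the concentration that stops growth completely.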

Legend:
Assay in all cases: DTP human tumour cell line panel, 48 h
A549 NSCLC = tested on: A549 NSCLC
M19-MEL melanoma = tested on: M19-MEL melanoma
NCI-H460 lung = tested on: NCI-H460 lung
U251 CNS = tested on: U251 CNS
DLD-1 colon = tested on: DLD-1 colon
CAKI-1 renal = tested on: CAKI-1 renal
COLO 205 colon = tested on: COLO 205 colon
DMS 273 small cell lung = tested on: DMS 273 small cell lung
SNB-19 CNS = tested on: SNB-19 CNS
786-0 renal = tested on: 786-0 renal
MALME-3M melanoma = tested on: MALME-3M melanoma
MOLT-4 leukemia = tested on: MOLT-4 leukemia
OVCAR-8 ovarian = tested on: OVCAR-8 ovarian
RXF 393 renal = tested on: RXF 393 renal
KM20L2 colon = tested on: KM20L2 colon
SNB-78 CNS = tested on: SNB-78 CNS
ACHN renal = tested on: ACHN renal
HCT-116 colon = tested on: HCT-116 colon
SF-268 CNS = tested on: SF-268 CNS
OVCAR-4 ovarian = tested on: OVCAR-4 ovarian
HT29 colon = tested on: HT29 colon
LXFL 529 NSCLC = tested on: LXFL 529 NSCLC
SF-539 CNS = tested on: SF-539 CNS
NCI-H226 lung = tested on: NCI-H226 lung
HOP-18 NSCLC = tested on: HOP-18 NSCLC
SN12C renal = tested on: SN12C renal
CCRF-CEM leukemia = tested on: CCRF-CEM leukemia
IGROV1 ovarian = tested on: IGROV1 ovarian
EKVX NSCLC = tested on: EKVX NSCLC
NCI-H522 lung = tested on: NCI-H522 lung
SK-MEL-5 melanoma = tested on: SK-MEL-5 melanoma
K-562 leukemia = tested on: K-562 leukemia
UO-31 renal = tested on: UO-31 renal
NCI-H23 lung = tested on: NCI-H23 lung
SR leukemia = tested on: SR leukemia
UACC-257 melanoma = tested on: UACC-257 melanoma
OVCAR-5 ovarian = tested on: OVCAR-5 ovarian
SK-OV-3 ovarian = tested on: SK-OV-3 ovarian
KM12 colon = tested on: KM12 colon
XF 498 CNS = tested on: XF 498 CNS
A498 renal = tested on: A498 renal
SW-620 colon = tested on: SW-620 colon
SF-295 CNS = tested on: SF-295 CNS
OVCAR-3 ovarian = tested on: OVCAR-3 ovarian
HL-60(TB) leukemia = tested on: HL-60(TB) leukemia
SNB-75 CNS = tested on: SNB-75 CNS
M14 melanoma = tested on: M14 melanoma
HOP-62 NSCLC = tested on: HOP-62 NSCLC
DMS 114 small cell lung = tested on: DMS 114 small cell lung
SK-MEL-2 melanoma = tested on: SK-MEL-2 melanoma
HOP-92 NSCLC = tested on: HOP-92 NSCLC
SK-MEL-28 melanoma = tested on: SK-MEL-28 melanoma
HCC-2998 colon = tested on: HCC-2998 colon
HCT-15 colon = tested on: HCT-15 colon
UACC-62 melanoma = tested on: UACC-62 melanoma
RPMI-8226 leukemia = tested on: RPMI-8226 leukemia
TK-10 renal = tested on: TK-10 renal

Molecule `N#CC(/C(CCCC(=O)Nc1cccc([N+](=O)[O-])c1)=N\NC(=O)c1c(O)ccc2ccccc12)c1nc2ccccc2s1` (stereo not drawn) has a TGI (A549 NSCLC) greater than 100 µM, a TGI (M19-MEL melanoma) of 46.6 µM and a TGI (NCI-H460 lung) greater than 100 µM. It also gave a TGI (U251 CNS) greater than 100 µM, a TGI (DLD-1 colon) greater than 100 µM and a TGI (CAKI-1 renal) greater than 100 µM. For the same molecule, the TGI (COLO 205 colon) was greater than 100 µM, the TGI (DMS 273 small cell lung) was 68.3 µM and the TGI (SNB-19 CNS) was greater than 100 µM. It also gave a TGI (786-0 renal) greater than 100 µM, a TGI (MALME-3M melanoma) greater than 100 µM and a TGI (MOLT-4 leukemia) greater than 100 µM. For the same molecule, the TGI (OVCAR-8 ovarian) was greater than 100 µM, the TGI (RXF 393 renal) was greater than 100 µM and the TGI (KM20L2 colon) was greater than 100 µM. The TGI (SNB-78 CNS) was greater than 100 µM, the TGI (ACHN renal) was greater than 100 µM and the TGI (HCT-116 colon) was greater than 100 µM. It also gave a TGI (SF-268 CNS) greater than 100 µM, a TGI (OVCAR-4 ovarian) greater than 100 µM and a TGI (HT29 colon) greater than 100 µM. The TGI (LXFL 529 NSCLC) was greater than 100 µM, the TGI (SF-539 CNS) was 66.3 µM and the TGI (NCI-H226 lung) was 72 µM. It also gave a TGI (HOP-18 NSCLC) greater than 100 µM, a TGI (SN12C renal) greater than 100 µM and a TGI (CCRF-CEM leukemia) greater than 100 µM. The TGI (IGROV1 ovarian) was greater than 100 µM, the TGI (EKVX NSCLC) was greater than 100 µM and the TGI (NCI-H522 lung) was greater than 100 µM. For the same molecule, the TGI (SK-MEL-5 melanoma) was 93.1 µM, the TGI (K-562 leukemia) was greater than 100 µM and the TGI (UO-31 renal) was greater than 100 µM. It also gave a TGI (NCI-H23 lung) greater than 100 µM, a TGI (SR leukemia) greater than 100 µM and a TGI (UACC-257 melanoma) greater than 100 µM. For the same molecule, the TGI (OVCAR-5 ovarian) was greater than 100 µM, the TGI (SK-OV-3 ovarian) was greater than 100 µM and the TGI (KM12 colon) was greater than 100 µM. It also gave a TGI (XF 498 CNS) greater than 100 µM, a TGI (A498 renal) greater than 100 µM and a TGI (SW-620 colon) greater than 100 µM. It also gave a TGI (SF-295 CNS) greater than 100 µM, a TGI (OVCAR-3 ovarian) greater than 100 µM and a TGI (HL-60(TB) leukemia) of 24.1 µM. For the same molecule, the TGI (SNB-75 CNS) was greater than 100 µM, the TGI (M14 melanoma) was greater than 100 µM and the TGI (HOP-62 NSCLC) was 95.4 µM. For the same molecule, the TGI (DMS 114 small cell lung) was 34.5 µM, the TGI (SK-MEL-2 melanoma) was greater than 100 µM and the TGI (HOP-92 NSCLC) was greater than 100 µM. The TGI (SK-MEL-28 melanoma) was greater than 100 µM.

`N#Cc1ccc(C2SCc3nc4ccccc4n32)cc1` (stereo not drawn) showed a TGI (A549 NSCLC) greater than 100 µM, a TGI (M19-MEL melanoma) greater than 100 µM and a TGI (NCI-H460 lung) greater than 100 µM. For the same molecule, the TGI (U251 CNS) was greater than 100 µM, the TGI (DLD-1 colon) was greater than 100 µM and the TGI (CAKI-1 renal) was greater than 100 µM. For the same molecule, the TGI (COLO 205 colon) was greater than 100 µM, the TGI (DMS 273 small cell lung) was greater than 100 µM and the TGI (SNB-19 CNS) was greater than 100 µM. For the same molecule, the TGI (786-0 renal) was greater than 100 µM, the TGI (MALME-3M melanoma) was greater than 100 µM and the TGI (MOLT-4 leukemia) was greater than 100 µM. The TGI (OVCAR-8 ovarian) was greater than 100 µM, the TGI (RXF 393 renal) was greater than 100 µM and the TGI (KM20L2 colon) was greater than 100 µM. For the same molecule, the TGI (HCC-2998 colon) was greater than 100 µM, the TGI (SNB-78 CNS) was greater than 100 µM and the TGI (ACHN renal) was greater than 100 µM. For the same molecule, the TGI (HCT-116 colon) was greater than 100 µM, the TGI (SF-268 CNS) was greater than 100 µM and the TGI (OVCAR-4 ovarian) was greater than 100 µM. It also gave a TGI (HCT-15 colon) greater than 100 µM, a TGI (LXFL 529 NSCLC) greater than 100 µM and a TGI (SF-539 CNS) greater than 100 µM. For the same molecule, the TGI (HOP-18 NSCLC) was greater than 100 µM, the TGI (SN12C renal) was greater than 100 µM and the TGI (CCRF-CEM leukemia) was greater than 100 µM. It also gave a TGI (UACC-62 melanoma) greater than 100 µM, a TGI (IGROV1 ovarian) greater than 100 µM and a TGI (EKVX NSCLC) greater than 100 µM. The TGI (NCI-H522 lung) was 75.8 µM, the TGI (RPMI-8226 leukemia) was greater than 100 µM and the TGI (SK-MEL-5 melanoma) was greater than 100 µM. The TGI (K-562 leukemia) was greater than 100 µM, the TGI (UO-31 renal) was 73.6 µM and the TGI (NCI-H23 lung) was greater than 100 µM. It also gave a TGI (UACC-257 melanoma) greater than 100 µM, a TGI (SK-OV-3 ovarian) greater than 100 µM and a TGI (KM12 colon) greater than 100 µM. It also gave a TGI (XF 498 CNS) greater than 100 µM, a TGI (A498 renal) greater than 100 µM and a TGI (SW-620 colon) greater than 100 µM. For the same molecule, the TGI (SF-295 CNS) was greater than 100 µM, the TGI (OVCAR-3 ovarian) was greater than 100 µM and the TGI (HL-60(TB) leukemia) was greater than 100 µM. The TGI (SNB-75 CNS) was greater than 100 µM, the TGI (M14 melanoma) was greater than 100 µM and the TGI (HOP-62 NSCLC) was greater than 100 µM. It also gave a TGI (SK-MEL-2 melanoma) greater than 100 µM, a TGI (TK-10 renal) greater than 100 µM and a TGI (SK-MEL-28 melanoma) greater than 100 µM.
